Laboratory results as given in patent US20130338199A1, “Novel Niacin Compositions for Reduction of Amyloid Beta Peptide 42 (AB42) Production and for Treatment of Alzheimer's Disease” (priority 2008, published 2013).
Read-outs that look alike come from different tables or passages of the source. Each block holds one compound with its values, some of them ahead of it.

Tests used:
[1] = system: Aβ42 production by human neuroblastoma SH-SY5Y cells; test: Aβ42 production by SH-SY5Y cells, sandwich ELISA of conditioned medium; conditions: for activity in reducing the production of Aβ42 (in words): cell-based assay
Experimental: We used the human Neuroblastoma SH-SY5Y cells for drug testing as a model for Aβ42 production. The cells were cultured in Dulbecco's modified Eagle's medium or Dulbecco's modified Eagle's medium/Ham's F-12 medium supplemented with 10% fetal bovine serum, 100 units/ml penicillin, and 100 μg/ml streptomycin in a humidified atmosphere of 95% air, 5% CO2 at 37° C. as per suppliers instructions. […] Cell toxicity was monitored using the MTT assay and all data reported are corrected for any cell loss.
Sandwich Enzyme-Linked Immunosorbent Assay (sELISA) for Quantization of Aβ42:
The capture antibody, detection antibody and secondary antibody as well as standard purified preparations of Aβ42 were obtained from Sigma-Aldrich. Cells were cultured for 24 h in the presence or absence of compounds and the conditioned medium was subjected to sELISA.

[2] = In vivo pharmacokinetics (plasma and brain niacin and eugenol by HPLC); design: species or system male Swiss Albino mice; conditions: male, Swiss Albino, mouse
Experimental: In vivo pharmacokinetic (PK) studies were conducted in male Swiss Albino mice. Niacin-Eugenol physical mixture or Niacin-Eugenol hybrid cocrystal was administered to the animals at a dose of 0.73 mmol/kg orally (n=2 mice per time point). […] Plasma was separated by centrifugation at 4000 rpm for 10 minutes and stored in ice for analysis. Animals were sacrificed at the above time points; and brains were excised, snap frozen in liquid nitrogen and stored at −80° C. Samples were analyzed by high-performance liquid chromatography (HPLC) with UV detection. […] The precipitated proteins were removed by centrifugation at 15000 rpm at 5° C. for 10 min. The supernatant was collected in HPLC vials and kept at 4° C. for analysis. 200 mg of the brain tissue was homogenized in Acetonitrile. The resultant homogenate was centrifuged at 15000 rpm for 10 minutes at 4° C. […] Pharmacokinetic parameters were calculated using WinNonLin v5.2 software. The plasma and brain samples were analyzed for Niacin and Eugenol concentrations using HPLC under the conditions shown below: […]

[3] = system: human APP overexpressing Drosophila; test: Survival of human APP overexpressing Drosophila transgenic model; format: in vivo, Drosophila melanogaster; conditions: 100 mg/kg body weight/day with the food
Experimental: The effect of cocrystal of niacin-eugenol/eugenol was tested in a Drosophila model which over expresses the human APP protein. The creation of the APP over expressing flies and other methods for these studies are as described previously by Greeve et al (See J. Neuroscience, 2004, 24:3899-3906). The targeted over/ectopic expression of APP in the brain using UAS promoter driven APP transgene, induced by a specific GAL4 trans-driver in the Drosophila model system was used. Adult flies, a total of 80 flies (4 males and 4 females per tube, 10 tubes) were fed right after their emergence and the survival was examined until the end of 9th day. The drugs to be tested were delivered with the food.

[4] = Homo sapiens, SH-SY5Y, read-out: IC50 (μM) in cell based abeta assay

Structure (SMILES): COc1cc(/C=C/C(=O)O)ccc1OC(=O)c1cccnc1 [Niacin-ferulic acid hybrid]
IC50 [1, 4]: > 50 µM

Structure (SMILES): COc1ccc(/C=C\C(=O)O)cc1OC(=O)c1cccnc1 [Niacin-isofreulic acid hybrid]
IC50 [1, 4]: 36.8 µM

Structure (SMILES): O=C(O)c1cccnc1 [niacin, pyridine-3-carboxylic acid]
reduction of niacin IC50 in the presence of cinnamic acid ([1]; 5 μM cinnamic acid versus niacin alone): about 15%
reduction of niacin IC50 in the presence of curcumin ([1]; 5 μM curcumin versus niacin alone): about 27%
reduction of niacin IC50 in the presence of eugenol ([1]; 5 μM eugenol versus niacin alone): about 45%
reduction of niacin IC50 in the presence of meclofenamic acid ([1]; 5 μM meclofenamic acid versus niacin alone): about 33%
inhibitory effect of niacin on Aβ42 levels in the media ([1]; 5 and 10 μM niacin): good effect
inhibition of Aβ42 levels in the media ([1]; 25 and 50 μM niacin): 100%
IC50 ([1]; Homo sapiens, SH-SY5Y, read-out: IC50 of niacin in the presence of cinnamic acid, in the presence of 5 μM of cinnamic acid): 9.8 µM
IC50 ([1]; Homo sapiens, SH-SY5Y, read-out: IC50 of niacin in the presence of curcumin, in the presence of 5 μM of curcumin): 7.5 µM
IC50 ([1]; Homo sapiens, SH-SY5Y, read-out: IC50 of niacin in the presence of eugenol, in the presence of 5 μM of eugenol): 5.9 µM
IC50 ([1]; Homo sapiens, SH-SY5Y, read-out: IC50 of niacin in the presence of meclofenamic acid, in the presence of 5 μM of meclofenamic acid): 7 µM
IC50 ([1]; Homo sapiens, SH-SY5Y, read-out: IC50 of niacin's inhibitory effect on Aβ42 production, niacin alone, SH-SY5Y cells, overnight incubation): 10.6 µM
IC50 ([1]; read-out: IC50 of niacin's inhibitory effect on Aβ42 production, niacin alone, SH-SY5Y cells, overnight incubation): ~10.2 µM

Structure (SMILES): Oc1ccc(C=Cc2cc(O)cc(O)c2)cc1 [resveratrol]
effect on survival compared to untreated flies ([3]; early time points): modest effect
effect on number of surviving flies compared to untreated flies ([3]; end of 9th day (FIG. 7)): no statistically different effect

The next lines start with results.

IC50 [1, 4]: 25.3 µM
Structure (SMILES): COc1cc(C(C)=O)ccc1OC(=O)c1cccnc1 [Niacin-apocynin hybrid]

IC50 ([1]; read-out: IC50 (μM) in cell based abeta assay, blocking Aβ42 secretion): > 50 µM
Structure (SMILES): CCCc1ccc(OC(=O)c2cccnc2)c(OC)c1 [Niacin-dihydro eugenol hybrid]

IC50 [1, 4]: 17.5 µM
Structure (SMILES): COc1cc(CC2CO2)ccc1OC(=O)c1cccnc1 (stereo not drawn) [Niacin-eugenol epoxide hybrid]

IC50 [1, 4]: 14 µM
increase in Tmax for eugenol compared to physical mixture [2]: 4 fold
Structure (SMILES): C=CCc1ccc(OC(=O)c2cccnc2)c(OC)c1 [Niacin-eugenol hybrid, Nicotinic acid 4-allyl-2-methoxy-phenyl ester]
activity in reducing the production of Aβ42 (in words) [1]: most active among the series
activity in reducing the production of Aβ42 (in words) ([1]; listed as niacin-eugenol ester linked hybrid): most potent

IC50 [1, 4]: 44.6 µM
Structure (SMILES): COc1cc(C=O)ccc1OC(=O)c1cccnc1 [Niacin-vanillin hybrid, Nicotinic acid 4-formyl-2-methoxy-phenyl ester]
